± gives the uncertainty stated by the source.
Experiment: xn = mol fraction of the nth substance listed

CC(=O)[O-].CC[n+]1ccn(C)c1 + CN(CCO)CCO
101 kPa
Conditions | electrical conductivity [S/m] | viscosity [mPa·s]
288.15 K, x1 = 0.2002 | 0.036 ± 0.004 | 150.1 ± 9.3
288.15 K, x1 = 0.4995 | 0.066 ± 0.007 | 174 ± 11
293.15 K, x1 = 0.4001 | 0.071 ± 0.007 | 123.1 ± 7.6
298.15 K, x1 = 0.4995 | 0.112 ± 0.011 | 97.7 ± 6
303.15 K, x1 = 0.2002 | 0.065 ± 0.007 | 65.1 ± 3.9
303.15 K, x1 = 0.5998 | 0.171 ± 0.017 | 81.8 ± 5
303.15 K, x1 = 1 | 0.358 ± 0.036 | 102.4 ± 6.3
308.15 K, x1 = 0.8999 | 0.384 ± 0.038 | 73.4 ± 4.4
313.15 K, x1 = 0.4995 | 0.229 ± 0.023 | 48.5 ± 2.9
313.15 K, x1 = 0.7003 | 0.343 ± 0.034 | 52.3 ± 3.2
313.15 K, x1 = 0.7998 | 0.401 ± 0.04 | 54.1 ± 3.3
318.15 K, x1 = 0.1002 | 0.051 ± 0.005 | 29.4 ± 1.8
318.15 K, x1 = 0.7003 | 0.426 ± 0.043 | 42.4 ± 2.6
318.15 K, x1 = 0.8999 | 0.598 ± 0.06 | 46.3 ± 2.8
318.15 K, x1 = 1 | 0.724 ± 0.072 | 47.7 ± 2.9
323.15 K, x1 = 0.1002 | 0.063 ± 0.006 | 23.5 ± 1.4
323.15 K, x1 = 1 | 0.883 ± 0.088 | 39 ± 2.4
328.15 K, x1 = 0.1002 | 0.075 ± 0.008 | 18.9 ± 1.1
328.15 K, x1 = 0.4995 | 0.414 ± 0.041 | 26.5 ± 1.6
328.15 K, x1 = 0.5998 | 0.519 ± 0.052 | 27.6 ± 1.7
333.15 K, x1 = 0.8999 | 1.06 ± 0.11 | 25.7 ± 1.5
333.15 K, x1 = 1 | 1.25 ± 0.12 | 26.7 ± 1.6
343.15 K, x1 = 0.4001 | 0.52 ± 0.052 | 14.88 ± 0.9
348.15 K, x1 = 0.4995 | 0.795 ± 0.08 | 13.87 ± 0.84
353.15 K, x1 = 0.2002 | 0.331 ± 0.033 | 8.91 ± 0.54
353.15 K, x1 = 0.5998 | 1.2 ± 0.12 | 12.74 ± 0.77
353.15 K, x1 = 0.7998 | 1.68 ± 0.17 | –

CC[N+](CC)(CC)CC.[Cl-] + CNCCO
101.3 kPa
Conditions | viscosity [mPa·s]
293.15 K, x1 = 0.1413 | 23.7 ± 2.4
303.15 K, x1 = 0.1114 | 14.3 ± 1.4
308.15 K, x1 = 0.09139 | 11.4 ± 1.1
313.15 K, x1 = 0.1413 | 10.3 ± 1
318.15 K, x1 = 0.1413 | 8.78 ± 0.88
323.15 K, x1 = 0.1114 | 7.1 ± 0.71
323.15 K, x1 = 0.1413 | 7.56 ± 0.76
328.15 K, x1 = 0.09139 | 5.45 ± 0.55

CCCCc1n(S(=O)(=O)O)cc[n+]1S(=O)(=O)O.O=C([O-])C(F)(F)F + CO
electrical conductivity [S/m], 101 kPa
Conditions | x1 = 0.0104 | x1 = 0.0205 | x1 = 0.02551
298.15 K | 1.59 ± 0.032 | 2.16 ± 0.043 | –
308.15 K | – | – | 2.28 ± 0.046

CC[n+]1ccn(C)c1C.O=S(=O)([N-]S(=O)(=O)C(F)(F)F)C(F)(F)F + COC(=O)OC
viscosity [mPa·s], 101.3 kPa
Conditions | 288.15 K | 293.15 K | 298.15 K | 303.15 K | 308.15 K | 313.15 K
x1 = 0.002023 | 0.685 ± 0.015 | 0.64 ± 0.014 | 0.601 ± 0.013 | 0.564 ± 0.012 | 0.532 ± 0.012 | 0.502 ± 0.011
x1 = 0.003635 | 0.702 ± 0.015 | 0.655 ± 0.014 | 0.613 ± 0.013 | 0.576 ± 0.013 | 0.542 ± 0.012 | 0.512 ± 0.011
x1 = 0.004511 | 0.715 ± 0.016 | 0.668 ± 0.015 | 0.625 ± 0.014 | 0.589 ± 0.013 | 0.556 ± 0.012 | 0.525 ± 0.011
x1 = 0.006328 | 0.731 ± 0.016 | 0.682 ± 0.015 | 0.637 ± 0.014 | 0.599 ± 0.013 | 0.563 ± 0.012 | 0.531 ± 0.012
x1 = 0.007386 | 0.745 ± 0.016 | 0.694 ± 0.015 | 0.65 ± 0.014 | 0.609 ± 0.013 | 0.573 ± 0.013 | 0.541 ± 0.012
x1 = 0.008644 | 0.76 ± 0.017 | 0.706 ± 0.015 | 0.66 ± 0.014 | 0.618 ± 0.014 | 0.58 ± 0.013 | 0.548 ± 0.012
x1 = 0.01069 | 0.79 ± 0.017 | 0.73 ± 0.016 | 0.681 ± 0.015 | 0.638 ± 0.014 | 0.603 ± 0.013 | 0.569 ± 0.012
x1 = 0.01174 | 0.798 ± 0.017 | 0.741 ± 0.016 | 0.691 ± 0.015 | 0.646 ± 0.014 | 0.607 ± 0.013 | 0.571 ± 0.012
x1 = 0.01299 | 0.815 ± 0.018 | 0.757 ± 0.017 | 0.705 ± 0.015 | 0.66 ± 0.014 | 0.619 ± 0.014 | 0.582 ± 0.013
x1 = 0.01405 | 0.825 ± 0.018 | 0.766 ± 0.017 | 0.714 ± 0.016 | 0.666 ± 0.015 | 0.625 ± 0.014 | 0.588 ± 0.013
x1 = 0.01538 | 0.844 ± 0.018 | 0.782 ± 0.017 | 0.728 ± 0.016 | 0.68 ± 0.015 | 0.637 ± 0.014 | 0.599 ± 0.013
x1 = 0.01591 | 0.848 ± 0.019 | 0.786 ± 0.017 | 0.731 ± 0.016 | 0.683 ± 0.015 | 0.639 ± 0.014 | 0.601 ± 0.013
x1 = 0.01645 | 0.854 ± 0.019 | 0.791 ± 0.017 | 0.736 ± 0.016 | 0.687 ± 0.015 | 0.643 ± 0.014 | 0.605 ± 0.013
x1 = 0.01685 | 0.86 ± 0.019 | 0.796 ± 0.017 | 0.74 ± 0.016 | 0.691 ± 0.015 | 0.647 ± 0.014 | 0.608 ± 0.013
x1 = 0.01703 | 0.864 ± 0.019 | 0.8 ± 0.018 | 0.744 ± 0.016 | 0.694 ± 0.015 | 0.651 ± 0.014 | 0.611 ± 0.013
x1 = 0.02124 | 0.91 ± 0.02 | 0.841 ± 0.018 | 0.781 ± 0.017 | 0.727 ± 0.016 | 0.681 ± 0.015 | 0.639 ± 0.014
x1 = 0.02489 | 0.946 ± 0.021 | 0.873 ± 0.019 | 0.81 ± 0.018 | 0.755 ± 0.016 | 0.706 ± 0.015 | 0.662 ± 0.014
x1 = 0.02663 | 0.965 ± 0.021 | 0.891 ± 0.019 | 0.826 ± 0.018 | 0.771 ± 0.017 | 0.72 ± 0.016 | 0.676 ± 0.015
x1 = 0.0275 | 0.978 ± 0.021 | 0.903 ± 0.02 | 0.837 ± 0.018 | 0.78 ± 0.017 | 0.729 ± 0.016 | 0.683 ± 0.015
x1 = 0.03106 | 1.005 ± 0.022 | 0.928 ± 0.02 | 0.86 ± 0.019 | 0.801 ± 0.017 | 0.75 ± 0.016 | 0.702 ± 0.015
x1 = 0.03264 | 1.017 ± 0.022 | 0.939 ± 0.021 | 0.871 ± 0.019 | 0.811 ± 0.018 | 0.759 ± 0.017 | 0.711 ± 0.016
x1 = 0.03671 | 1.052 ± 0.023 | 0.972 ± 0.021 | 0.902 ± 0.02 | 0.839 ± 0.018 | 0.784 ± 0.017 | 0.735 ± 0.016
x1 = 0.04003 | 1.084 ± 0.024 | 1.001 ± 0.022 | 0.928 ± 0.02 | 0.864 ± 0.019 | 0.807 ± 0.018 | 0.756 ± 0.017
x1 = 0.04547 | 1.132 ± 0.025 | 1.046 ± 0.023 | 0.97 ± 0.021 | 0.903 ± 0.02 | 0.843 ± 0.018 | 0.79 ± 0.017
x1 = 0.04804 | 1.154 ± 0.025 | 1.065 ± 0.023 | 0.989 ± 0.022 | 0.92 ± 0.02 | 0.859 ± 0.019 | 0.805 ± 0.018
x1 = 0.05983 | 1.271 ± 0.028 | 1.171 ± 0.026 | 1.086 ± 0.024 | 1.01 ± 0.022 | 0.942 ± 0.021 | 0.881 ± 0.019

Reference: the CheMixHub ionic liquid set
